Structures are written as SMILES.

The subject of this data set is HepaRG 3D microtissues. Particulars: 10-day old HepaRG 3D microtissues, 1.2 mM CPA. From the text: FIG. 2B is a chart showing the change in HepaRG spheroid volume as an indicator of cytotoxicity induced by cyclophosphamide (CPA) with or without 1-aminobenzotriazol (ABT). The inventors analyzed the data with two-way ANOVA with Tukey's LSD means. P=0.05. […] FIG. 2C is a picture showing hematoxylin and eosin (H&E) stained toroid-shaped HepaRG microtissues. Scale bars=100 μm.

For the compound `O=P1(N(CCCl)CCCl)NCCCO1` (stereo not shown) [CPA, cyclophosphamide], the “cytotoxicity: cell death and spheroid volume” value was “caused cell death and a significant reduction in spheroid volume”.

The record behind these values is US12241049B2, “Multi-compartment device containing human three-dimensional (3D) microtissues for toxicity testing” (BROWN UNIVERSITY, priority 2019, dated 2025).
